Laboratory results published in patent publication US10246462B2, “Chemokine receptor modulators and uses thereof” (FLX Bio, Inc., priority 2016, dated 2019).
Counter-ions that a name gives are not always drawn.

target: CCR4 (Homo sapiens (Human), UniProt P51679); assay: Calcium mobilization (Ca Flux) assay; assay type: cell-based
Method: Calcium Mobilization Assay. Calcium mobilization experiments may be performed by labeling the human T-cell line CEM with […] dye (45 min at room temperature), washing with PBS, and re-suspending into flux buffer (HBSS with 1% FBS).

CCR4, sequence (P51679 whole entry): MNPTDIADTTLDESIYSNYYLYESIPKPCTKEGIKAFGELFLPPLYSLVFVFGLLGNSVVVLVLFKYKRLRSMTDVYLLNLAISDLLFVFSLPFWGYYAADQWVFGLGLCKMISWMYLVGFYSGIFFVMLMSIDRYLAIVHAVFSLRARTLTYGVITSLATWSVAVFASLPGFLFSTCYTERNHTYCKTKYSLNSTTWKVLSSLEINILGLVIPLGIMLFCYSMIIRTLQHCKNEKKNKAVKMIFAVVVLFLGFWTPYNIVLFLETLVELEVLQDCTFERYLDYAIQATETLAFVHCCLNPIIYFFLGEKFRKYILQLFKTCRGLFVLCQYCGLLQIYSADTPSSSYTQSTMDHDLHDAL

Structure (SMILES)	IC50 [nM]
COC[C@@H]1CCCN1C1CC=C(c2cnc3c(C#N)nn([C@H](C)c4ccc(Cl)cc4Cl)c3n2)CC1C (mixture of isomers) [Example 84, 1-((R)-1-(2,4-Dichlorophenyl)ethyl)-6-(4-((S)-2-(methoxymethyl)pyrrolidin-1-yl)-5-methylcyclohex-1-en-1-yl)-1H-pyrazolo[3,4-b]pyrazine-3-carbonitrile hydrochloride]	100 to 500
Cc1nn([C@H](C)c2ccc(Cl)cc2Cl)c2nc(N3CCC(N4CCC[C@H]4CCC(=O)O)C[C@@H]3C)cnc12 (mixture of isomers) [Example 50, 3-((2S)-1-((2S)-1-(1-((R)-1-(2,4-Dichlorophenyl)ethyl)-3-methyl-1H-pyrazolo[3,4-b]pyrazin-6-yl)-2-methylpiperidin-4-yl)pyrrolidin-2-yl)propanoic acid 2,2,2-trifluoroacetate]	> 500
Cc1nn([C@H](C)c2ccc(Cl)cc2Cl)c2nc(N3CCC(N4CCC[C@H]4CCN)[C@H](C)C3)cnc12 (stereo partly drawn) [Example 45, 3-((R)-1-((3R,4S)-1-(1-((R)-1-(2,4-Dichlorophenyl)ethyl)-3-methyl-1H-pyrazolo[3,4-b]pyrazin-6-yl)-3-methylpiperidin-4-yl)pyrrolidin-2-yl)ethan-1-amine]	100 to 500
Cc1nn([C@H](C)c2ccc(Cl)cc2Cl)c2nc(C3=CC[C@H](N4CCC[C@H]4C(N)=O)[C@H](C)C3)cnc12 [Example 86, (S)-1-((1S,6R)-4-(1-((R)-1-(2,4-Dichlorophenyl)ethyl)-3-methyl-1H-pyrazolo[3,4-b]pyrazin-6-yl)-6-methylcyclohex-3-en-1-yl)pyrrolidine-2-carboxamide hydrochloride]	100 to 500
Cc1nn([C@H](C)c2ccc(Cl)cc2Cl)c2nc(N3CC[C@H](N4CCC[C@@H](CC(=O)O)C4)[C@H](CO)C3)cnc12 [Example 65, 2-((3S,3′R,4′S)-1′-(1-((R)-1-(2,4-Dichlorophenyl)ethyl)-3-methyl-1H-pyrazolo[3,4-b]pyrazin-6-yl)-3′-(hydroxymethyl)-[1,4′-bipiperidin]-3-yl)acetic acid hydrochloride]	100 to 500
CC(c1ccc(Cl)cc1Cl)n1nc(C(N)=O)c2ncc(N3CCC(N4CCCCC4)C(F)C3)nc21 (stereo not drawn) [Example 25, 1-(1-(2,4-Dichlorophenyl)ethyl)-6-(3′-fluoro-[1,4′-bipiperidin]-1′-yl)-1H-pyrazolo[3,4-b]pyrazine-3-carboxamide hydrochloride]	100 to 500
C[C@@H]1CN(c2cnc3c(C#N)nn([C@H](C)c4ccc(Cl)cc4F)c3n2)CC[C@@H]1N1CCC[C@H]1CCC(=O)O [Example 90, 3-((S)-1-((3R,4S)-1-(1-((R)-1-(4-chloro-2-fluorophenyl)ethyl)-3-cyano-1H-pyrazolo[3,4-b]pyrazin-6-yl)-3-methylpiperidin-4-yl)pyrrolidin-2-yl)propanoic acid hydrochloric acid]	< 100
CCOC(=O)c1nn(Cc2ccc(Cl)cc2Cl)c2nc(N3CCC(N4CCCCC4)C(C)C3)cnc12 (stereo not drawn) [Example 11, Ethyl 1-(2,4-dichlorobenzyl)-6-(3′-methyl-[1,4′-bipiperidin]-1′-yl)-1H-pyrazolo[3,4-b]pyrazine-3-carboxylate hydrochloride]	100 to 500
Cc1nn([C@H](C)c2ccc(Cl)cc2F)c2nc(N3CC[C@H](N4CCC[C@H]4CCC(=O)O)[C@H](C)C3)cnc12 [Example 49, 3-((S)-1-((3R,4S)-1-(1-((R)-1-(4-Chloro-2-fluorophenyl)ethyl)-3-methyl-1H-pyrazolo[3,4-b]pyrazin-6-yl)-3-methylpiperidin-4-yl)pyrrolidin-2-yl)propanoic acid 2,2,2-trifluoroacetate]	100 to 500
C[C@@H]1CN(c2cnc3c(C#N)nn([C@H](C)c4ccc(Cl)cc4Cl)c3n2)CC[C@@H]1N1CCC[C@H]1CCC(=O)O [Example 43, 3-((S)-1-((3R,4S)-1-(3-Cyano-1-((R)-1-(2,4-dichlorophenyl)ethyl)-1H-pyrazolo[3,4-b]pyrazin-6-yl)-3-methylpiperidin-4-yl)pyrrolidin-2-yl)propanoic acid hydrochloride]	< 100
C[C@H](c1ccc(Cl)cc1Cl)n1nc(C#N)c2ncc(N3CCC(N4CCCC(CO)C4)CC3)nc21 (stereo partly drawn) [Example 62, 1-((R)-1-(2,4-Dichlorophenyl)ethyl)-6-(3-(hydroxymethyl)-[1,4′-bipiperidin]-1′-yl)-1H-pyrazolo[3,4-b]pyrazine-3-carbonitrile hydrochloride]	100 to 500
CCC1CN(c2cnc3c(C(N)=O)nn(C(C)c4ccc(Cl)cc4Cl)c3n2)CCC1N1CCCCC1 (stereo not drawn) [Example 6, 1-(1-(2,4-Dichlorophenyl)ethyl)-6-(3′-ethyl-[1,4′-bipiperidin]-1′-yl)-1H-pyrazolo[3,4-b]pyrazine-3-carboxamide hydrochloride]	100 to 500
C[C@H](c1ccc(Cl)cc1Cl)n1nc(C#N)c2ncc(N3CC[C@H](N4CCCCC4)[C@H](CO)C3)nc21 [Example 29, 1-((R)-1-(2,4-Dichlorophenyl)ethyl)-6-((3′R,4′S)-3′-(hydroxymethyl)-[1,4′-bipiperidin]-1′-yl)-1H-pyrazolo[3,4-b]pyrazine-3-carbonitrile hydrochloride]	< 100
CCN(CC1(O)COC1)C1CC=C(c2cnc3c(C#N)nn([C@H](C)c4ccc(Cl)cc4Cl)c3n2)CC1C (stereo partly drawn) [Example 92, 1-((R)-1-(2,4-dichlorophenyl)ethyl)-6-(4-(ethyl((3-hydroxyoxetan-3-yl)methyl)amino)-5-methylcyclohex-1-en-1-yl)-1H-pyrazolo[3,4-b]pyrazine-3-carbonitrile]	100 to 500
CC1CCCCN1C1CCN(c2cnc3c(C(N)=O)nn(C(C)c4ccc(Cl)cc4Cl)c3n2)CC1 (stereo not drawn) [Example 3, 1-(1-(2,4-Dichlorophenyl)ethyl)-6-(2-methyl-[1,4′-bipiperidin]-1′-yl)-1H-pyrazolo[3,4-b]pyrazine-3-carboxamide hydrochloride]	> 500
CNC(=O)[C@@H]1CCCN1[C@H]1CC=C(c2cnc3c(C#N)nn([C@H](C)c4ccc(Cl)cc4Cl)c3n2)C[C@H]1C [Example 91, (S)-1-((1S,6R)-4-(3-Cyano-1-((R)-1-(2,4-dichlorophenyl)ethyl)-1H-pyrazolo[3,4-b]pyrazin-6-yl)-6-methylcyclohex-3-en-1-yl)-N-methylpyrrolidine-2-carboxamide trifluoroacetate]	100 to 500

Second part, the molecule after the results:

IC50 [nM]	Structure (SMILES)
100 to 500	Cc1nn([C@H](C)c2ccc(Cl)cc2Cl)c2nc(N3CCC(N4CCC[C@H]4CCC(O)C(F)(F)F)C(C)C3)cnc12 (single isomer, unassigned) [Example 47, hydrochloride]
< 100	Cc1nn([C@H](C)c2ccc(Cl)cc2Cl)c2nc(N3CC[C@H](N4CCCC4)[C@H](C)C3)cnc12 [Example 12, 1-((R)-1-(2,4-Dichlorophenyl)ethyl)-3-methyl-6-((3R,4S)-3-methyl-4-(pyrrolidin-1-yl)piperidin-1-yl)-1H-pyrazolo[3,4-b]pyrazine hydrochloride]
100 to 500	Cc1nn([C@H](C)c2ccc(Cl)cc2Cl)c2nc(N3CC[C@@H](N4CCC[C@H]4CCS(N)(=O)=O)[C@@H](C)C3)cnc12 [Example 53, 2-((S)-1-((3S,4R)-1-(1-((R)-1-(2,4-Dichlorophenyl)ethyl)-3-methyl-1H-pyrazolo[3,4-b]pyrazin-6-yl)-3-methylpiperidin-4-yl)pyrrolidin-2-yl)ethane-1-sulfonamide hydrochloride]
100 to 500	Cc1nn([C@H](C)c2ccc(Cl)cc2Cl)c2nc(N3CCC(C4CCCNC4)C(C)C3)cnc12 (stereo partly drawn) [Example 66, 1-((R)-1-(2,4-Dichlorophenyl)ethyl)-3-methyl-6-(3′-methyl-[3,4′-bipiperidin]-1′-yl)-1H-pyrazolo[3,4-b]pyrazine hydrochloride]
< 100	Cc1nn([C@H](C)c2ccc(Cl)cc2Cl)c2nc(N3CC[C@H](N4CCC[C@H]4C)[C@H](C)C3)cnc12 [Example 20, 1-((R)-1-(2,4-Dichlorophenyl)ethyl)-3-methyl-6-((3R,4S)-3-methyl-4-((R)-2-methylpyrrolidin-1-yl)piperidin-1-yl)-1H-pyrazolo[3,4-b]pyrazine hydrochloride]
100 to 500	Cc1nn([C@H](C)c2ccc(Cl)cc2Cl)c2nc(N3CCC(N4CCC[C@H]4CC(F)C(=O)O)C(C)C3)cnc12 (single isomer, unassigned) [Example 56]
> 500	Cc1nn([C@H](C)c2ccc(Cl)cc2Cl)c2nc(N3CCC(N4CCC[C@H]4C4CC4C(=O)O)C(C)C3)cnc12 (mixture of isomers) [Example 54, 2-((2S)-1-(1-(1-((R)-1-(2,4-Dichlorophenyl)ethyl)-3-methyl-1H-pyrazolo[3,4-b]pyrazin-6-yl)-3-methylpiperidin-4-yl)pyrrolidin-2-yl)cyclopropane-1-carboxylic acid]
100 to 500	Cc1nn([C@H](C)c2ccc(Cl)cc2Cl)c2nc(N3CCC(N4CCC(F)CC4)C(C)C3)cnc12 (stereo partly drawn) [Example 61, 1-((R)-1-(2,4-Dichlorophenyl)ethyl)-6-(4-fluoro-3′-methyl-[1,4′-bipiperidin]-1′-yl)-3-methyl-1H-pyrazolo[3,4-b]pyrazine hydrochloride]
100 to 500	Cc1nn([C@H](C)c2ccc(Cl)cc2Cl)c2nc(N3CC(C)C(N4CCCC4)C[C@@H]3C)cnc12 (stereo partly drawn) [Example 18, 1-((R)-1-(2,4-Dichlorophenyl)ethyl)-6-((2S)-2,5-dimethyl-4-(pyrrolidin-1-yl)piperidin-1-yl)-3-methyl-1H-pyrazolo[3,4-b]pyrazine hydrochloride]
100 to 500	Cc1nn([C@H](C)c2ccc(Cl)cc2Cl)c2nc(N3CC[C@H](N4CCC[C@H]4CO)[C@H](C(N)=O)C3)cnc12 [Example 63, (3R,4S)-1-(1-((R)-1-(2,4-Dichlorophenyl)ethyl)-3-methyl-1H-pyrazolo[3,4-b]pyrazin-6-yl)-4-((S)-2-(hydroxymethyl)pyrrolidin-1-yl)piperidine-3-carboxamide hydrochloride]
100 to 500	Cc1nn([C@H](C)c2ccc(Cl)cc2Cl)c2nc(N3CC[C@H](N4CCC[C@H]4C(C)(C)O)[C@H](C)C3)cnc12 [Example 36, 2-((S)-1-((3R,4S)-1-(1-((R)-1-(2,4-Dichlorophenyl)ethyl)-3-methyl-1H-pyrazolo[3,4-b]pyrazin-6-yl)-3-methylpiperidin-4-yl)pyrrolidin-2-yl)propan-2-ol hydrochloride]
